The values below come from patent publication US11999746B2, “Compounds” (GlaxoSmithKline Intellectual Property Development Limited, priority 2014, dated 2024).

The assay has as its target T1, Lp-PLA2 in human plasma (Homo sapiens, UniProt Q13093).
T1 construct: from tissue; host or cells: pooled human plasma
T1 sequence (Q13093 22-441): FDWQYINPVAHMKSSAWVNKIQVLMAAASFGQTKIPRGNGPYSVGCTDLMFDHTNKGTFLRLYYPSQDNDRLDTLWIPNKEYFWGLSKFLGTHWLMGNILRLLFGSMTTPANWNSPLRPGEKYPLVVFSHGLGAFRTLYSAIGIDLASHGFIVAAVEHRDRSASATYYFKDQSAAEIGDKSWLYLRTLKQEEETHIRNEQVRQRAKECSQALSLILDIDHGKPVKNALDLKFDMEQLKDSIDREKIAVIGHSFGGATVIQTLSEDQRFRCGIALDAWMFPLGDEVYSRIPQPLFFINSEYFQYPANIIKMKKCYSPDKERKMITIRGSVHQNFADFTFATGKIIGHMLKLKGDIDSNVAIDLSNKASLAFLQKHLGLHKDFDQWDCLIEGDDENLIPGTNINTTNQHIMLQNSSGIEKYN
As to the kind of experiment: (3a) Lp-PLA2 human plasma Thio-PAF assay. To be noted: (3a) Thio-PAF assay, pooled human plasma; Examples 1-265 and 413-430 were tested here; read-out: pIC50 in the Lp-PLA2 human plasma assay (converted). The class given is biochemical. From the text: (3) Lipoprotein-Associated Phospholipase A2 (Lp-PLA2) Human Plasma Assay
The human plasma assay utilizes a thioester analog of PAF (phosphatidylcholine), where hydrolysis yields to the formation of a phospholipid containing a free thiol group. The amount of thiol is quantitated continuously by reacting with CPM (7-diethylamino-3-(4′-maleimidylphenyl)-4-methylcoumarin), a maleimide which increases in fluoresence after Michael addition of thiols. This assay may detect the activity of Lp-PLA2 in human plasma, as determined by specific inhibition by Lp-PLA2 inhibitors.
The thio-PAF assay was run as a quenched 15 μL assay. Compounds source plate was prepared by making 1:3 (by volume) serial dilution of the compounds into pure DMSO on 384-well microplate. 0.01 μL of compounds on compound source plate were transferred to 384 well Greiner 784076 (black) low-volume plates by ECHO liquid dispenser. 8 μL pooled human plasma, which was previously aliquoted and frozen, was added. Plates were centrifuged for 10 sec at 500 rpm. After 30 minutes preincubation, 2 μL of substrate solution comprising 2.5 mM 2-thio-PAF [from ethanol stock], 32 μM CPM [from a DMSO stock] and 3.2 mM NEM (N-ethylmaleimide) [made fresh daily in DMSO] in assay buffer of 50 mM HEPES, pH 7.4, 150 mM NaCl, 1 mM CHAPS was added to 384 well Greiner 784076 (black) low-volume plates by BRAVO liquid handling station. After 2 mins, reaction was quenched with 5 μL of 5% aqueous trifluoroacetic acid (TFA). Plates were covered to protect from light and incubated for 40 min at room temperature. Plates were read at ex: 380/em: 485 using Envision microplate reader. PIC50 data, curve and QC analysis were conducted by using XLFit module in Excel.
On to `O=c1nc(OCc2cc(F)c(F)cc2F)cc2n1C[C@@H]1COCN21` [Example E175, (R)-6-((2,4,5-trifluorobenzyl)oxy)-10,10a-dihydro-1H-oxazolo[3′,4′:3,4]imidazo[1,2-c] pyrimidin-8(3H)-one], for which the IC50 was at most 10 µM.
As for `O=c1nc(OCc2cc(F)cc(F)c2)cc2n1C[C@@H]1CCCN21` [Example E215, (S)-3-((3,5-difluorobenzyl)oxy)-7,8,8a,9-tetrahydropyrrolo[1′,2′:3,4]imidazo[1,2-c]pyrimidin-1(6H)-one], the figure is at most 10 µM; as for `O=c1nc(OCc2cccc(F)c2F)cc2n1C[C@@H]1COCCN21` [Example E221, (R)-7-((2,3-difluorobenzyl)oxy)-3,4,11,11a-tetrahydropyrimido[6′,1′:2,3]imidazo[5,1-c][1,4]oxazin-9(1H)-one], at most 0.1 µM.
Turning to `CCCCN1CC(Oc2c(F)cc(COc3cc4n(c(=O)n3)C[C@@H]3CCCN43)cc2F)C1` [Example E207, (S)-3-((4-((1-butylazetidin-3-yl)oxy)-3,5-difluorobenzyl)oxy)-7,8,8a,9-tetrahydropyrrolo[1′,2′:3,4]imidazo[1,2-c]pyrimidin-1(6H)-one], the IC50 was at most 10 µM.
For `O=c1nc(OCc2ccc(CN3CCCC(F)(F)C3)c(F)c2)cc2n1C[C@@H]1CCCCN21` [Example E205, (S)-3-((4-((3,3-difluoropiperidin-1-yl)methyl)-3-fluorobenzyl)oxy)-6,7,8,9,9a,10-hexahydro-1H-pyrido[1′,2′:3,4]imidazo[1,2-c]pyrimidin-1-one], the IC50 is at most 10 µM.
For `O=c1nc(OCc2cccc(F)c2)cc2n1C[C@@H]1CCCN21` [Example E214, (S)-3-((3-fluorobenzyl)oxy)-7,8,8a,9-tetrahydropyrrolo[1,2′:3,4]imidazo[1,2-c]pyrimidin-1(6H)-one], the IC50 is at most 10 µM.
As for `O=c1nc(OCc2cc(F)c(F)cc2F)cc2n1C[C@@H]1COCCN21` [Example E219, (R)-7-((2,4,5-trifluorobenzyl)oxy)-3,4,11,11a-tetrahydropyrimido[6′,1′:2,3]imidazo[5,1-c] [1,4]oxazin-9(1H)-one], the figure is at most 10 µM; as for `O=c1nc(OCc2cccc(F)c2F)cc2n1C[C@@H]1COCN21` [Example E172, (R)-6-((2,3-difluorobenzyl)oxy)-10,10a-dihydro-1H-oxazolo[3′,4′:3,4]imidazo[1,2-c] pyrimidin-8(3H)-one], at most 10 µM.
As to `O=c1nc(OCc2cccc(F)c2F)cc2n1C[C@@H]1CCOCN21` [Example E183, (S)-3-((2,3-difluorobenzyl)oxy)-8,9,9a,10-tetrahydropyrimido[6′,1′:2,3]imidazo[1,5-c][1,3] oxazin-1(6H)-one], the IC50 is at most 10 µM.
As to `O=c1nc(OCCc2cccc(F)c2)cc2n1C[C@@H]1COCCN21` [Example E246, (R)-7-(3-fluorophenethoxy)-3,4,11,11a-tetrahydropyrimido[6′,1′:2,3]imidazo[5,1-c][1,4] oxazin-9(1H)-one], the IC50 was at most 10 µM.
As for `O=c1nc(OCc2ccc(F)cc2F)cc2n1C[C@@H]1CCOCN21` [Example E180, (S)-3-((2,4-difluorobenzyl)oxy)-8,9,9a,10-tetrahydropyrimido[6′,1′:2,3]imidazo[1,5-c][1,3]oxazin-1(6H)-one], the figure is at most 10 µM; as for `O=c1nc(OCc2cc(F)c(F)cc2F)cc2n1C[C@H]1COCN21` [Example E173, (S)-6-((2,4,5-trifluorobenzyl)oxy)-10,10a-dihydro-1H-oxazolo[3′,4′:3,4]imidazo[1,2-c] pyrimidin-8(3H)-one], at most 10 µM.
Turning to `O=c1nc(OCc2cc(F)c(F)c(F)c2)cc2n1CC1OCCN21` (stereo not shown) [Example E188, 6-((3,4,5-Trifluorobenzyl)oxy)-10,10a-dihydro-2H-oxazolo[3′,2′:3,4]imidazo[1,2-c]pyrimidin-8(3H)-one], the IC50 is at most 10 µM.
